Measured values from patent publication US11780893B2, “Kv1.3 blockers” (Zealand Pharma A/S, priority 2019, dated 2023).
Bridge positions count the residues as written; N and C are the ends. Square brackets hold non-standard residues; d marks the D form. Peptide text beside a SMILES is read from it. Nle = CCCC[C@H](N)C(=O)O

Target: T1, human Kv1.3 voltage-gated K+ channel (Homo sapiens, UniProt P22001)
T1 construct: host or cells: CHO-DUKX
Test: cell-based
Conditions: inhibition of thallium flux, CHO-DUKX cells with human Kv1.3; read-out: IC50

T1 sequence (P22001 whole entry): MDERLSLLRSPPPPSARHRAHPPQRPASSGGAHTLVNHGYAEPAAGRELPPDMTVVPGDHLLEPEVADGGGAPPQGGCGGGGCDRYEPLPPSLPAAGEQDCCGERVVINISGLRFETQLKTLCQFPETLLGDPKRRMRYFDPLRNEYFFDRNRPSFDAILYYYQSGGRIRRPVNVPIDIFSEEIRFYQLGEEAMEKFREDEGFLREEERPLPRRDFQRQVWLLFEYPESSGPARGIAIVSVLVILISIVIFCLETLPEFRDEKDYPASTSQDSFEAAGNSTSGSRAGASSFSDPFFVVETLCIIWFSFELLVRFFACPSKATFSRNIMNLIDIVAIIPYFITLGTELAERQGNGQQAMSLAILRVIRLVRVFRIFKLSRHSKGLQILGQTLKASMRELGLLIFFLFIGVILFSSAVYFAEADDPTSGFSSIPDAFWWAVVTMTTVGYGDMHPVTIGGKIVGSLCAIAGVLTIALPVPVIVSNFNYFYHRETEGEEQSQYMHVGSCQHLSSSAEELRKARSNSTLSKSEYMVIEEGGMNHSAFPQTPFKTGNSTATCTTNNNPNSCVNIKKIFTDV

CCCC[C@@H]1NC(=O)[C@@H]2CSSC[C@H](NC(=O)[C@H](CCCNC(=N)N)NC(=O)[C@H](CCCC)NC(=O)[C@H](CCC(=O)O)NC(=O)[C@H](CCCC)NC(=O)[C@H]3CCCN3)C(=O)N[C@@H](CO)C(=O)N[C@@H](C)C(=O)N[C@@H](CO)C(=O)N[C@@H](C(C)C)C(=O)N[C@@H](CCC(=O)O)C(=O)N[C@H]3CSSC[C@H](NC(=O)[C@H](CCCCN)NC(=O)[C@H](CCCCN)NC(=O)[C@H](CC(N)=O)NC1=O)C(=O)N[C@@H](CCCCN)C(=O)N[C@H](C(=O)N[C@@H](Cc1ccc(O)cc1)C(=O)N1CCC[C@H]1C(=O)N[C@@H](CCCNC(=N)N)C(=O)O)CSSC[C@H](NC(=O)[C@H](CCCCN)NC(=O)[C@H](CCC(N)=O)NC(=O)[C@H](CCCCN)NC3=O)C(=O)N[C@@H](CC(C)C)C(=O)N[C@@H](C)C(=O)N[C@@H](C)C(=O)N[C@@H]([C@@H](C)CC)C(=O)NCC(=O)N[C@@H](CO)C(=O)N[C@@H]([C@@H](C)CC)C(=O)N[C@@H](Cc1ccccc1)C(=O)NCC(=O)N[C@@H](CCCCN)C(=O)N2 [Compound 119] (H-[dP][Nle]E[Nle]RCSASVECKQKCLAAIGSIFGKC[Nle]NKKCKCYPR-OH; disulfide 6-27, 12-32, 16-34)
IC50: 0.63 nM

CCCC[C@@H]1NC(=O)[C@@H]2CSSC[C@H](NC(C)=O)C(=O)N[C@@H](CO)C(=O)N[C@@H](C)C(=O)N[C@@H](CO)C(=O)N[C@@H](C(C)C)C(=O)N[C@@H](CCC(=O)O)C(=O)N[C@H]3CSSC[C@H](NC(=O)[C@H](CCCCN)NC(=O)[C@H](CCCCN)NC(=O)[C@H](CC(N)=O)NC1=O)C(=O)N[C@@H](CCCCN)C(=O)N[C@H](C(=O)N[C@@H](Cc1ccc(O)cc1)C(=O)NCC(N)=O)CSSC[C@H](NC(=O)[C@H](CCCCN)NC(=O)[C@H](CCC(N)=O)NC(=O)[C@H](CCCCN)NC3=O)C(=O)N[C@@H](CC(C)C)C(=O)N[C@@H](CCCCN)C(=O)N[C@@H](C)C(=O)N[C@@H]([C@@H](C)CC)C(=O)NCC(=O)N[C@@H](CO)C(=O)N[C@@H]([C@@H](C)CC)C(=O)N[C@@H](Cc1ccccc1)C(=O)NCC(=O)N[C@@H](CCCCN)C(=O)N2 [Compound 111] (Ac-CSASVECKQKCLKAIGSIFGKC[Nle]NKKCKCYG-NH2; disulfide 1-22, 7-27, 11-29)
IC50: 2.1 nM

CCCC[C@H](NC(=O)[C@@H]1CCCN1)C(=O)N[C@@H](CCC(=O)O)C(=O)N[C@@H](CCCC)C(=O)N[C@@H](CCCNC(=N)N)C(=O)N[C@H]1CSSC[C@@H]2NC(=O)[C@H](CCCCN)NC(=O)CNC(=O)[C@H](Cc3ccccc3)NC(=O)[C@H]([C@@H](C)CC)NC(=O)[C@H](CO)NC(=O)CNC(=O)[C@H]([C@@H](C)CC)NC(=O)[C@H](C)NC(=O)[C@H](C)NC(=O)[C@H](CC(C)C)NC(=O)[C@@H]3CSSC[C@@H](C(=O)N[C@@H](Cc4ccc(O)cc4)C(=O)N4CCC[C@H]4C(=O)N[C@@H](CCCNC(=N)N)C(=O)N[C@@H](CC(C)C)C(=O)O)NC(=O)[C@H](CCCCN)NC(=O)[C@H](CSSC[C@H](NC(=O)[C@H](CCC(=O)O)NC(=O)[C@H](C(C)C)NC(=O)[C@H](CO)NC(=O)[C@H](C)NC(=O)[C@H](CO)NC1=O)C(=O)N[C@@H](CCCCN)C(=O)N[C@@H](CCC(N)=O)C(=O)N[C@@H](CCCCN)C(=O)N3)NC(=O)[C@H](CCCCN)NC(=O)[C@H](CCCCN)NC(=O)[C@H](CC(N)=O)NC(=O)[C@H](CCCC)NC2=O [Compound 124] (H-P[Nle]E[Nle]RCSASVECKQKCLAAIGSIFGKC[Nle]NKKCKCYPRL-OH; disulfide 6-27, 12-32, 16-34)
IC50: 1.47 nM

CCCC[C@H](NC(=O)[C@@H]1CCCN1)C(=O)N[C@@H](CCC(=O)O)C(=O)N[C@@H](CCCC)C(=O)N[C@@H](CCCNC(=N)N)C(=O)N[C@H]1CSSC[C@@H]2NC(=O)[C@H](CCCCN)NC(=O)CNC(=O)[C@H](Cc3ccccc3)NC(=O)[C@H]([C@@H](C)CC)NC(=O)[C@H](CO)NC(=O)CNC(=O)[C@H]([C@@H](C)CC)NC(=O)[C@H](C)NC(=O)[C@H](C)NC(=O)[C@H](CC(C)C)NC(=O)[C@@H]3CSSC[C@@H](C(=O)N[C@@H](Cc4ccc(O)cc4)C(=O)N4CCC[C@H]4C(=O)N[C@@H](CCCNC(=N)N)C(=O)O)NC(=O)[C@H](CCCCN)NC(=O)[C@H](CSSC[C@H](NC(=O)[C@H](CCC(=O)O)NC(=O)[C@H](C(C)C)NC(=O)[C@H](CO)NC(=O)[C@H](C)NC(=O)[C@H](CO)NC1=O)C(=O)N[C@@H](CCCCN)C(=O)N[C@@H](CCC(=O)O)C(=O)N[C@@H](CCCCN)C(=O)N3)NC(=O)[C@H](CCCCN)NC(=O)[C@H](CCCCN)NC(=O)[C@H](CC(N)=O)NC(=O)[C@H](CCCC)NC2=O [Compound 118] (H-P[Nle]E[Nle]RCSASVECKEKCLAAIGSIFGKC[Nle]NKKCKCYPR-OH; disulfide 6-27, 12-32, 16-34)
IC50: 1.39 nM

CCCC[C@H](NC(=O)[C@@H]1CCCN1)C(=O)N[C@@H](CCC(=O)O)C(=O)N[C@@H](CCCC)C(=O)N[C@@H](CCCNC(=N)N)C(=O)N[C@H]1CSSC[C@@H]2NC(=O)[C@H](CCCCN)NC(=O)CNC(=O)[C@H](Cc3ccccc3)NC(=O)[C@H]([C@@H](C)CC)NC(=O)[C@H](CO)NC(=O)CNC(=O)[C@H]([C@@H](C)CC)NC(=O)[C@H](C)NC(=O)[C@H](C)NC(=O)[C@H](CC(C)C)NC(=O)[C@@H]3CSSC[C@@H](C(=O)N[C@@H](Cc4ccc(O)cc4)C(=O)N4CCC[C@H]4C(=O)N[C@@H](CCCNC(=N)N)C(=O)N[C@@H](CCCNC(=N)N)C(=O)N[C@@H](Cc4ccc(O)cc4)C(=O)O)NC(=O)[C@H](CCCCN)NC(=O)[C@H](CSSC[C@H](NC(=O)[C@H](CCC(=O)O)NC(=O)[C@H](C(C)C)NC(=O)[C@H](CO)NC(=O)[C@H](C)NC(=O)[C@H](CO)NC1=O)C(=O)N[C@@H](CCCCN)C(=O)N[C@@H](CCC(N)=O)C(=O)N[C@@H](CCCCN)C(=O)N3)NC(=O)[C@H](CCCCN)NC(=O)[C@H](CCCCN)NC(=O)[C@H](CC(N)=O)NC(=O)[C@H](CCCC)NC2=O [Compound 134] (H-P[Nle]E[Nle]RCSASVECKQKCLAAIGSIFGKC[Nle]NKKCKCYPRRY-OH; disulfide 6-27, 12-32, 16-34)
IC50: 0.21 nM

CCCC[C@@H]1NC(=O)[C@@H]2CSSC[C@H](NC(=O)[C@H](CCCNC(=N)N)NC(C)=O)C(=O)N[C@@H](CO)C(=O)N[C@@H](C)C(=O)N[C@@H](CO)C(=O)N[C@@H](C(C)C)C(=O)N[C@@H](CCC(=O)O)C(=O)N[C@H]3CSSC[C@H](NC(=O)[C@H](CCCCN)NC(=O)[C@H](CCCCN)NC(=O)[C@H](CC(N)=O)NC1=O)C(=O)N[C@@H](CCCCN)C(=O)N[C@H](C(=O)N[C@@H](Cc1ccc(O)cc1)C(=O)N1CCC[C@H]1C(=O)N[C@@H](CCCNC(=N)N)C(=O)O)CSSC[C@H](NC(=O)[C@H](CCCCN)NC(=O)[C@H](CCC(N)=O)NC(=O)[C@H](CCCCN)NC3=O)C(=O)N[C@@H](CC(C)C)C(=O)N[C@@H](CCCCN)C(=O)N[C@@H](C)C(=O)N[C@@H]([C@@H](C)CC)C(=O)NCC(=O)N[C@@H](CO)C(=O)N[C@@H]([C@@H](C)CC)C(=O)N[C@@H](Cc1ccccc1)C(=O)NCC(=O)N[C@@H](CCCCN)C(=O)N2 [Compound 113] (Ac-RCSASVECKQKCLKAIGSIFGKC[Nle]NKKCKCYPR-OH; disulfide 2-23, 8-28, 12-30)
IC50: 0.34 nM
